Patent US20040106683A1, “Uses of benzylideneamino guanidines as ligands to the melnocortin receptors” (priority 2001, published 2004)
Counter-ions that a name gives are not always drawn.

Experiments:
[1] = target: T1, recombinant human MC4 receptor (Homo sapiens, UniProt P32245); experiment: Affinity for the MC4-receptor, displacement of 125I-NDP-MSH in transfected Sf9 or COS cells; settings: nb = non-binding, i.e. no affinity, read-out: Affinity for MC-receptors, Ki, MC4
T1 construct: expressed in transfected cells; host or cells: Sf9 insect cells or COS cells
T1 sequence (P32245 whole entry): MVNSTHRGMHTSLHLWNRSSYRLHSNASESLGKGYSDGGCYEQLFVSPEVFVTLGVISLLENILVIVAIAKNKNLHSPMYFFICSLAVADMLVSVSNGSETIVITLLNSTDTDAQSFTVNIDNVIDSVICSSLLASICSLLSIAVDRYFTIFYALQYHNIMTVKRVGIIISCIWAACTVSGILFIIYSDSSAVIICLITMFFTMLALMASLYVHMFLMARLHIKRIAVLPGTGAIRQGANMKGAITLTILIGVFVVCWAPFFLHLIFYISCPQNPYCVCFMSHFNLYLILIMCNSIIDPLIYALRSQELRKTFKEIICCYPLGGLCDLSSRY
Method: (§1) Test 2. Affinity for the MC3-Receptors, the MC4-Receptors and the MC5-Receptors
(§2) Essentially, the affinity of the compounds for the different melanocortin receptors were determined by using either insect cells (Sf9) or COS cells, which were transfected with recombinant human MC3, MC4 or MC5 receptors. For the determination of the affinity for the MC1 receptor, B16 mouse melanoma cells were used, which endogenously express the (mouse) MC1 receptor.
(§3) Incubation was performed in 96-well plates, using 50,000 cells/well (Sf9 or COS cells) up to 200,000 cells/well (mouse melanoma cells).
(§4) After the incubation, the cells were washed twice to get rid of the excess tracer and compound, and the cells were lysed with 0.1 M NaOH. The lysate was counted in a gamma-counter, binding was calculated and the affinity determined.

[2] = target: T2, recombinant human MC3 receptor (Homo sapiens, UniProt P41968); experiment: Affinity for the MC3-receptor, displacement of 125I-NDP-MSH in transfected Sf9 or COS cells; settings: nb = non-binding, i.e. no affinity, read-out: Affinity for MC-receptors, Ki, MC3
T2 construct: expressed in transfected cells; host or cells: Sf9 insect cells or COS cells
T2 sequence (P41968 whole entry): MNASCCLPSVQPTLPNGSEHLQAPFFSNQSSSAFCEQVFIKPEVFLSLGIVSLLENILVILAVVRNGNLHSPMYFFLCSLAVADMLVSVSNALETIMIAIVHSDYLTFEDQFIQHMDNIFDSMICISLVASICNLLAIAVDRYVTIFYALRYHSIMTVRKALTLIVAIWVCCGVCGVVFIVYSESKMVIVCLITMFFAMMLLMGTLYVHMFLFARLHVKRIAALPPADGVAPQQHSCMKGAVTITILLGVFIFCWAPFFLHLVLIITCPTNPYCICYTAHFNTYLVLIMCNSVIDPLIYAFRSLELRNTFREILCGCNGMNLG
Method: as §1, §2, §3, §4

MC1 receptor = target: T3, MC1 receptor (Mus musculus, UniProt Q01727); experiment: Affinity for the MC1-receptor, displacement of 125I-NDP-MSH in B16 mouse melanoma cells; settings: endogenous mouse MC1, nb = non-binding, i.e. no affinity, read-out: Affinity for MC-receptors, Ki, MC1
T3 construct: B16 mouse melanoma cells were used, which endogenously express the (mouse) MC1 receptor; endogenous in cells; host or cells: B16 mouse melanoma cells
T3 sequence (Q01727 whole entry): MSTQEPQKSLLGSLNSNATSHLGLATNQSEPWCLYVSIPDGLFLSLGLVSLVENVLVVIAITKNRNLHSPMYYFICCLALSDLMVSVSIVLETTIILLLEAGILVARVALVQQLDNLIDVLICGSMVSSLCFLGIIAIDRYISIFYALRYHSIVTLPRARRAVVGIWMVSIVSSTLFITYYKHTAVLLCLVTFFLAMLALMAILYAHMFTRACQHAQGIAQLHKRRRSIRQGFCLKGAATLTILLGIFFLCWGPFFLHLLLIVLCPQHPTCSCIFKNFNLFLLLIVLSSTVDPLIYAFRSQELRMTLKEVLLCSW
Method: Test 1. Affinity for the MC1-Receptor
as §2, §3, §4

[3] = target: T4, recombinant human MC5 receptor (Homo sapiens, UniProt P33032); experiment: Affinity for the MC5-receptor, displacement of 125I-NDP-MSH in transfected Sf9 or COS cells; settings: nb = non-binding, i.e. no affinity, read-out: Affinity for MC-receptors, Ki, MC5
T4 construct: expressed in transfected cells; host or cells: Sf9 insect cells or COS cells
T4 sequence (P33032 whole entry): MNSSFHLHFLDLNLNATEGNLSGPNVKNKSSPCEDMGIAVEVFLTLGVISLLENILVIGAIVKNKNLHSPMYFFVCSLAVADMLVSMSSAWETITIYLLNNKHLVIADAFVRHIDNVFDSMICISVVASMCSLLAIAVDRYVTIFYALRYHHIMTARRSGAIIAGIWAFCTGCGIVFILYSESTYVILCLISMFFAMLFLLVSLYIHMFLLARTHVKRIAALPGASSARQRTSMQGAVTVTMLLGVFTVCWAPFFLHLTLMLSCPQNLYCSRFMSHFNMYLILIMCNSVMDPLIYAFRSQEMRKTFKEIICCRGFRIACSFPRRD
Method: as §1, §2, §3, §4

| melting point | Ki [1] [µM] | Ki [2] [µM] | Ki (MC1 receptor) [µM] | Ki [3] [µM] | Compound |
| --- | --- | --- | --- | --- | --- |
| 197 to 201 °C |  |  |  |  | N=C(N)NN=Cc1ccccc1Br (as salt: HCl) [1:14, N-(2-Bromobenzylideneamino)guanidine] |
|  | 0.9 | 74.6 | 0.6 |  | N=C(N)NN=Cc1ccccc1Br [1:14, N-(2-Bromobenzylideneamino)guanidine] |

More lines, now with the values behind:

| Compound | melting point | Ki [1] [µM] | Ki [2] [µM] | Ki (MC1 receptor) [µM] | Ki [3] [µM] |
| --- | --- | --- | --- | --- | --- |
| N=C(N)NN=Cc1cc(O)ccc1Br (as salt: HCl) [1:15, N-(2-Bromo-5-Hydroxybenzylideneamino)guanidine] | 223 to 228 °C (dec.) |  |  |  |  |
| N=C(N)NN=Cc1cc2c(cc1[N+](=O)[O-])OCO2 (as salt: salt) [1:17, N-(4,5-Methylenedioxy-2-nitrobenzylideneamino)guanidine] | 205 to 212 °C (dec.) |  |  |  |  |
| N=C(N)NN=Cc1cccc(Br)c1 (as salt: salt) [1:21, N-(3-Bromobenzylideneamino)guanidine] | 160 to 161.5 °C |  |  |  |  |
| N=C(N)NN=Cc1cc(O)ccc1Br [1:15, N-(2-Bromo-5-Hydroxybenzylideneamino)guanidine] |  | 6.8 |  | 1.3 | 68 |
| N=C(N)NN=Cc1cc2c(cc1[N+](=O)[O-])OCO2 [1:17, N-(4,5-Methylenedioxy-2-nitrobenzylideneamino)guanidine] |  | 28 | > 200 | 2.1 | > 200 |
| N=C(N)NN=Cc1cccc(Br)c1 [1:21, N-(3-Bromobenzylideneamino)guanidine] |  | 5.4 | 46 | 1.2 | 30.6 |
